These are literature values, as cited in patent publication US20250177320A1 (CinRx Pharma, LLC, priority 2017, published 2025).

In the case of `Oc1cc(O)cc(O)c1` [Phloroglucinol, 1,3,5-benzenetriol], the “bioavailability (absorption)” value (after an oral dose) is recorded as 47%. Moreover, the plasma half-life (plasma) is 1.5 h. Under “single oral dose of 160 mg”, the peak blood concentration was 677 ng/mL and the “time to peak blood concentration” value is 20 min.
